The target of one assay is T1, PDE5A1 enzyme (Homo sapiens, UniProt O76074).
T1 construct: purchased BPS Bioscience 60350
Description: In vitro inhibition of human phosphodiesterase enzyme 5 (BPS Bioscience PDE5A1 assay kit, fluorescence polarization). Format: biochemical. As for the experimental part: The evaluation of the compound is studied using BPS Bioscience enzyme assay kit (catalogue 60350). The PDE5A1 Assay kit is designed for identification of PDE5A1 inhibitors using fluorescence polarization. The assay is based on the binding of a fluorescent nucleotide monophosphate generated by PDE5A1 enzyme to the binding agent.
In this methodology only two simple steps on a microtiter plate are required for PDE5A1 reactions. First, the fluorescently labeled cGMP is incubated with PDE5A1 for 1 hour. Second, the binding agent is added to the reaction mixture to produce a change in fluorescent polarization that can then be measured using a fluorescence reader equipped for the measurement of fluorescence polarization.
For the assay the storage reagent FAM-Cyclic-3′, 5′-GMP (20 μM) is diluted with PDE assay buffer to achieve the solution with a […] concentration; the PDE5A1 enzyme is thawed and diluted with the PDE buffer obtaining a PDE5A1 solution at 10 pg/mL.
The assay compounds are diluted with DMSO 100% (v/v) at a concentration of 1000 μM and subsequently diluted in a Sodium chloride 0.9% solution to obtain a curve of concentrations of interest for the assay. The compounds are diluted in concentrations of: 10 nM, 30 nM, 50 nM, 100 nM, 300 nM, 500 nM, 1 μM, 3 μM, 5 μM (DMSO 10% v/v).
The study is comprised of groups: (i) substrate control; (ii) positive control (KIT); (iii) samples in several concentrations; (iv) tadalafil (comparative control). Each parameter (group) is triple labeled.
For the 4 groups there is added, to each microplate well, […] of the FAM-Cyclic-3′ reagent, 5′-GMP (200 μM).
To the substrate control group there is added, to each well, […] of vehicle (DMSO 10% v/v) and […] PDE Buffer.
To the positive control group there is added, to each well, […] of vehicle (DMSO 10% v/v).
To the tadalafil group: there is added […] of the solution in the concentrations of interest.
To the test group there is added […] of the sample solution (test compound)
OBSERVATION: the parameters tested are in triplicate.
To begin the reaction, add […] of the PDE5A1 enzyme (diluted as described above) to the microplate wells designated as Positive Control and Samples (test and tadalafil), and incubate the microplate, for 1 hour, at a temperature of 25° C.
After the incubation period, the reaction is interrupted by the addition, in all the wells, of […] of the binding agent solution and the microplate is incubated for 30 minutes, under light stirring, at room temperature. The reading of the microplate is carried out in Polarized Fluorescence (475-495 nm—excitation and 518-538 nm—emission detection) 500 nanoseconds integration time.
Background: In fluorescence polarisation assays a small probe gives low polarisation when free and higher when bound to something large.

Assay [1] relates to PC3-human prostate cancer cells. Description: Antiproliferative effect in tumor cell culture (CYQuant intracellular DNA, 72 hours), PC3. The conditions noted are these: for % Cell Proliferation Inhibition (intracellular DNA) PC-3 (average ± E.P.M.): 72 hours. The assay is classed as cell-based. As for the experimental part:
(§1) For the execution of the assay, the compounds are diluted in DMSO 100% (v/v) at a concentration of 1000 μM and subsequently diluted in a Sodium Chloride solution 0.9% to obtain the storage solutions of interest for use in the assays. The final concentration of interest will be directly diluted in the cell culture medium. For the assay there are used the following tumor cell lineages: PC3-human prostate cancer cells; LNCAP-human prostate cancer cells; DU145-human prostate cancer; MNK45-human gastric cancer and RT4-human bladder cancer cells. The tumor cell lineages are maintained in culture according to standard procedures established by the Cell Bank of Rio de Janeiro (lineage place of origin). For the assay, the tumor cells are seeded in the concentration of 10.000 cells per well (final volume of the reaction of […]), the plate is incubated for 8 hours, for the cells to adhere to the wall of the wells. After this period, the plate is divided in groups: • (a) test group: […] of the samples were added (test compound) in the concentrations of interest; • (b) positive control group: […] of culture medium were added (100% of cell proliferation); • (c) negative control group: 200 mL of culture medium and […] of the vehicle used were added to dilute the compounds (without cells—zero proliferation); • (d) control group: […] were added of the vehicle used to dilute the compounds. This group is important to evaluate whether the vehicle used interferes in the cell proliferation. OBSERVATION: the treatment with the concentrations of samples (test compounds) and of the controls are carried out in triplicate. Incubate the plate for 72 hours in a CO2 kiln at 37° C. After the incubation period, add […]/well of the solution with DNA marker from the CYQuant Kit and incubate the plate, for 60 minutes, in a CO2 incubator at 37° C. The fluorescence intensity is determined using a fluorescence microplate reader with 485 nm excitation and 530 nm emission detection. The results obtained were normalized relative to the positive control group (100% proliferation). For the compounds there are prepared the storage solutions in the concentrations of: 100 nM, 1 μM, 3 μM, 5 μM, 10 μM and 30 μM (DMSO 10% v/v). While the final concentrations in the test are of: 10 nM, 100 nM, 300 nM, 500 nM, 1000 nM and 3000 nM (in DMSO 1% v/v).

In assay [2] the test system is LNCAP-human prostate cancer cells. Description: Antiproliferative effect in tumor cell culture (CYQuant intracellular DNA, 72 hours), LNCAP. Format: cell-based. The conditions noted are these: for % Cell Proliferation Inhibition (intracellular DNA) LNCAP (average ± E.P.M.): 72 hours. As for the experimental part: as §1
Assay [3] deals with DU145-human prostate cancer. The assay is described as follows: Antiproliferative effect in tumor cell culture (CYQuant intracellular DNA, 72 hours), DU145. Format: cell-based. As to conditions: for % Cell Proliferation Inhibition (intracellular DNA) DU145 (average ± E.P.M.): 72 hours. As for the experimental part: as §1
For assay [4], the system named is MNK45-human gastric cancer. Description: Antiproliferative effect in tumor cell culture (CYQuant intracellular DNA, 72 hours), MNK45. The assay is classed as cell-based. As for the experimental part:
as §1

Assay [5] relates to RT4-human bladder cancer cells. Description: Antiproliferative effect in tumor cell culture (CYQuant intracellular DNA, 72 hours), RT4. Format: cell-based. The conditions noted are these: for % Cell Proliferation Inhibition (intracellular DNA) RT4 (average ± E.P.M.): 72 hours. As for the experimental part: as §1

For `CC(CO)N1CC(=O)N2C(=C(c3c[nH]c4ccccc34)OC2c2ccc3c(c2)OCO3)C1=O` (mixture of isomers) [BL-241, (R)-3-(benzo[d][1,3]dioxol-5-yl)-7-((S)-1-hydroxypropan-2-yl)-1-(1H-indole-3-yl)-6,7-dihydro-3H-oxazole[3,4-a]pyrazine-5,8-dione with (S)-3-(benzo[d][1,3]dioxol-5-yl)-7-((S)-1-hydroxypropan-2-yl)-1-(1H-indole-3-yl)-6,7-dihydro-3H -oxazole[3,4-a]pyrazine-5,8-dione], the “% of Inhibition (PDE5A1)” value on PDE5A1 enzyme (500 nM, 0.5 µM) was determined as 57%; on PDE5A1 enzyme (1000 nM, 1 µM), 71%; on PDE5A1 enzyme (3000 nM, 3 µM) it was 88%. Moreover, the “PDE5 inhibition, result in words” value at PDE5A1 enzyme (over the concentrations tested) was “capable of inhibiting the PDE5 in a dose-dependent manner”. The “% Cell Proliferation Inhibition (intracellular DNA) PC-3 (average ± E.P.M.)” value amounted to 27 ± 11% in assay [1] (10 nM, 0.01 µM); 36 ± 7% in assay [1] (100 nM, 0.1 µM); 42 ± 6% in assay [1] (300 nM, 0.3 µM); 46 ± 1% in assay [1] (500 nM, 0.5 µM); 33 ± 3% in assay [1] (1000 nM, 1 µM). In addition, the “antiproliferative effect, result in words” value in assay [1] (PC3 prostate cancer tumor lineage), in assay [2] (LNCAP prostate cancer tumor lineage), in assay [3] (DU145 prostate cancer tumor lineage) and in assay [5] (RT4 bladder cancer tumor lineage) was “antiproliferative effect” in each case. Besides, the “% Cell Proliferation Inhibition (intracellular DNA) LNCAP (average ± E.P.M.)” value came to 25 ± 2% in assay [2] (10 nM, 0.01 µM); 37 ± 3% in assay [2] (100 nM, 0.1 µM); 38 ± 4% in assay [2] (300 nM, 0.3 µM); 44 ± 2% in assay [2] (500 nM, 0.5 µM); 34 ± 6% in assay [2] (1000 nM, 1 µM). Further, the “% Cell Proliferation Inhibition (intracellular DNA) DU145 (average ± E.P.M.)” value in assay [3] (100 nM, 0.1 µM) was determined as 33 ± 8%; in assay [3] (300 nM, 0.3 µM), 17 ± 3%; in assay [3] (500 nM, 0.5 µM), 18 ± 2%; in assay [3] (1000 nM, 1 µM), 22 ± 2%; in assay [3] (3000 nM, 3 µM) it was 43 ± 5%. Also, the “% Cell Proliferation Inhibition (intracellular DNA) MNK45 (average ± E.P.M.)” value in assay [4] (100 nM, 0.1 µM) was found to be 25 ± 1%; in assay [4] (300 nM, 0.3 µM), 10 ± 2%; in assay [4] (500 nM, 0.5 µM), 2 ± 1%; in assay [4] (1000 nM, 1 µM) it was 4 ± 1%; in assay [4] (3000 nM, 3 µM) it was 20 ± 3%. In addition, the “% Cell Proliferation Inhibition (intracellular DNA) RT4 (average ± E.P.M.)” value in assay [5] (100 nM, 0.1 µM) is 28 ± 6%; in assay [5] (300 nM, 0.3 µM), 5 ± 2%; in assay [5] (500 nM, 0.5 µM) it was 4 ± 2%; in assay [5] (1000 nM, 1 µM) it was 11 ± 8%; in assay [5] (3000 nM, 3 µM) it was 57 ± 4%.
Consider `CN1CC(=O)N2[C@H](c3ccc4c(c3)OCO4)c3[nH]c4ccccc4c3C[C@@H]2C1=O` [Tadalafyl, tadalafil, reference compound], for which the inhibition at 5 µM at PDE5A1 enzyme (read-out: % of Inhibition (PDE5A1)) came to 96 ± 2%.

A word on the inhibition: it is the drop in the measured response relative to a control, in per cent.

These data come from patent US20220296590A1, “STEREOISOMERS OF THE COMPOUND 3-(BENZO[D][1,3]DIOXOL-5-YL)-7-(1-HYDROXYPROPAN-2-YL)-1-(1H-INDOL-3-YL)-6,7-DIHYDRO-3H-OXAZOL[3,4-A]PYRAZINE-5,8-DIONE AND USE THEREOF AS AN ANTITUMOR AGENT AND PHOSPHODIESTERASE ENZYME INHIBITOR” (BIOLAB SANUS FARMACEUTICA LTDA, priority 2019, published 2022).
